According to patent US5618815A, “1,9-bridged thiazolo[3,2-a]quinoline derivatives” (Bayer Aktiengesellschaft, priority 1994, dated 1997):
Converted amounts (≈) assume the structure as drawn.

Assays:
Type in all cases: cell-based
[1] = tested on: Staphylococcus aureus; assay: MIC by serial dilution (agar), Staphylococcus aureus; conditions: 37° C., about 20 hours
Method: (§1) The minimum inhibitory concentrations (MICs) of the compounds according to the invention were determined by serial dilution methods on Iso-Sensitest agar (Oxoid). For each test substance a series of agar plates was, prepared, which plates contained decreasing concentrations of the active compound, with twofold dilution in each case. The agar plates were inoculated with a Multipoint inoculator (Denley). Inoculation was carried out using overnight cultures of the pathogens, which had been diluted beforehand so that each inoculation point contained about 10^4 colony-forming particles. The inoculated agar plates were incubated at 37° C., and the growth of the microorganisms was read off after about 20 hours. The MIC (μg/ml) indicates the lowest concentration of active compound at which no growth-could be perceived with the naked eye. In the table below, the MICs of some of the compounds according to the invention are listed.

[2] = tested on: Enterococcus faecalis; assay: MIC by serial dilution (agar), Enterococcus faecalis; conditions: 20 h, 37° C., about 20 hours
Method: as §1

[3] = tested on: Micrococcus luteus; assay: MIC by serial dilution (agar), Micrococcus luteus; conditions: strain 9341, Iso-Sensitest agar, 37° C., about 20 hours
Method: as §1

[4] = 20 h, strain 133, Iso-Sensitest agar
[5] = 20 h, strain ICB 25701, Iso-Sensitest agar
[6] = 20 h, strain ICB 25768, Iso-Sensitest agar
[7] = ATCC29123, 20 h, strain ATCC 29123, Iso-Sensitest agar
[8] = strain 27 101, Iso-Sensitest agar
[9] = strain 9790, Iso-Sensitest agar

MIC [1, 4] | MIC [1, 5] | MIC [1, 6] | MIC [1, 7] | MIC [2, 8] | MIC [2, 9] | MIC [3] | SMILES
≤ 0.015 mg/L | 0.125 mg/L (≈ 0.275 µM) | 0.5 mg/L (≈ 1.1 µM) | ≤ 0.015 mg/L | 0.062 mg/L (≈ 0.136 µM) | 0.062 mg/L (≈ 0.136 µM) | 0.062 mg/L (≈ 0.136 µM) | CC1C=CC(N)C2CN(c3c(F)cc4c(=O)c(C(=O)O)c5scc6n5c4c3N(C)C6)CC12 (stereo not drawn) [Example 5, 8-(2-Amino-5-methyl-8-azabicyclo[4.3.0]non-3-en-8-yl)-7-fluoro-5-oxo-9,1-[(N-methylimino)methano]-5H-thiazolo-[3,2-a]quinoline-4-carboxylic acid]
≤ 0.015 mg/L | 0.125 mg/L (≈ 0.275 µM) | 0.25 mg/L (≈ 0.55 µM) | ≤ 0.015 mg/L | 0.125 mg/L (≈ 0.275 µM) | 0.125 mg/L (≈ 0.275 µM) | 0.125 mg/L (≈ 0.275 µM) | CNC1C=CCC2CN(c3c(F)cc4c(=O)c(C(=O)O)c5scc6n5c4c3N(C)C6)CC21 (stereo not drawn) [Example 3, 7-Fluoro-8-(2-methylamino-8-azabicyclo[4.3.0]non-3-en-8-yl)-5-oxo-9,1-[(N-methylimino)-methano]-5H-thiazolo-[3,2-a]quinoline-4-carboxylic acid]
≤ 0.015 mg/L | 0.25 mg/L (≈ 0.534 µM) | 1 mg/L (≈ 2.13 µM) | ≤ 0.015 mg/L | 0.126 mg/L (≈ 0.269 µM) | 0.125 mg/L (≈ 0.267 µM) | 0.25 mg/L (≈ 0.534 µM) | CNCC1C=CCC2CN(c3c(F)cc4c(=O)c(C(=O)O)c5scc6n5c4c3N(C)C6)CC12 (stereo not drawn) [Example 7, 7-Fluoro-8-(2-methylamonomethyl-8-azabicyclo[4.3.0]non-3-en-8-yl)-5-oxo-9,1-[(N-methylimino)-methano]-5H-thiazolo-[3,2-a]quinoline-4-carboxylic acid]
